In patent US20240398811A1, “PRC2 INHIBITORS FOR USE IN TREATING BLOOD DISORDERS” (ORIC Pharmaceuticals, Inc., priority 2021, published 2024) one finds IC50 data, which are given here for 27 molecules.

SMILES strings stand for the structures.

purified human, His-tagged PRC2 complex, sequence (O75530 whole entry): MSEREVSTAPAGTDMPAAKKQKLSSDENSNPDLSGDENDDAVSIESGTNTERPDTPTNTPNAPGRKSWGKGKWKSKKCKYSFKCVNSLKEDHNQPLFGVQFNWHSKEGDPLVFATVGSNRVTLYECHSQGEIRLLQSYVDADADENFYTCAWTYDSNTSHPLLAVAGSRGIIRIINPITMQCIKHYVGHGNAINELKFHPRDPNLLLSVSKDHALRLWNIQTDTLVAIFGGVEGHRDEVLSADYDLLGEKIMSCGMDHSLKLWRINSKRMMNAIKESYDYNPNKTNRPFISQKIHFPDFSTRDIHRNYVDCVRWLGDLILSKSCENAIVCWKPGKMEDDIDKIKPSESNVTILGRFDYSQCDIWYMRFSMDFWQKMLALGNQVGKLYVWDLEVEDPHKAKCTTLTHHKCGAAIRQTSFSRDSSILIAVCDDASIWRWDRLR
purified human, His-tagged PRC2 complex, sequence (Q15910 whole entry partner): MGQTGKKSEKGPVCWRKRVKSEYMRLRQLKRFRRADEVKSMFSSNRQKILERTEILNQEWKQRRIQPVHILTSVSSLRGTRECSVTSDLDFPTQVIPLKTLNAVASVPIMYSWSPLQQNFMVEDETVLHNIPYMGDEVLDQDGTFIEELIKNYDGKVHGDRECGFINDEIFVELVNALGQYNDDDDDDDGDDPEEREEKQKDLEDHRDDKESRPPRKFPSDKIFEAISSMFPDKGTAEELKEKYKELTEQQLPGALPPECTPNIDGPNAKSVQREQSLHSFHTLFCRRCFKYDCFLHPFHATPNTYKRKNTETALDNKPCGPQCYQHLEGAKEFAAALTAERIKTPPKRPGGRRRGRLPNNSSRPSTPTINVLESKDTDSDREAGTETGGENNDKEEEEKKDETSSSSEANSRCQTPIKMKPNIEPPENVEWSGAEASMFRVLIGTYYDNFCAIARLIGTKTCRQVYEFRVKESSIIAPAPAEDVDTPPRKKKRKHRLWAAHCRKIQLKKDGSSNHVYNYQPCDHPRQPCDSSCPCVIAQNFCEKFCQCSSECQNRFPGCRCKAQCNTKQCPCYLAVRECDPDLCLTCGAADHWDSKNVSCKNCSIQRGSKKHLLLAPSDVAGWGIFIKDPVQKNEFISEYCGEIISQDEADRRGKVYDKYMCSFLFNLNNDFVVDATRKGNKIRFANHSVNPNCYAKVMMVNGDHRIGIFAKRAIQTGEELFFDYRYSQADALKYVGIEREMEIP
purified human, His-tagged PRC2 complex, sequence (Q15022 whole entry partner): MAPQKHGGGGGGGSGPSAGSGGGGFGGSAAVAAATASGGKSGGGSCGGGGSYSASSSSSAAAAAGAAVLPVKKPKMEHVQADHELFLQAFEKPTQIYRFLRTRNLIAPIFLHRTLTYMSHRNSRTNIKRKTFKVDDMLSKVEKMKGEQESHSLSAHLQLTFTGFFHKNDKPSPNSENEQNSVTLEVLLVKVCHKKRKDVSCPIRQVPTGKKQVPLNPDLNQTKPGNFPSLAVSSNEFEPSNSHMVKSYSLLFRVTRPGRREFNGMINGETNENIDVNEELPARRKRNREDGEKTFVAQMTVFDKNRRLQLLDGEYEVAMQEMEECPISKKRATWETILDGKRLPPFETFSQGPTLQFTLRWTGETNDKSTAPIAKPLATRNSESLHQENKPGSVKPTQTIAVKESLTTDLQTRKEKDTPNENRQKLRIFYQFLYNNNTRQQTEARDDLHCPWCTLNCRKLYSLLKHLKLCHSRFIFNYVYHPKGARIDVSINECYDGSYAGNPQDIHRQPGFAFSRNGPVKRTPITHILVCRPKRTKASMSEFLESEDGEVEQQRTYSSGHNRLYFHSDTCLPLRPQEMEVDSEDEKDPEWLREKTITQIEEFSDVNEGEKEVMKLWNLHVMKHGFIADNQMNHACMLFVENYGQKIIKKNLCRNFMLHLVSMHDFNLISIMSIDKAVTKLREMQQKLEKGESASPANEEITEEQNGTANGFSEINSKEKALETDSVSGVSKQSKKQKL
purified human, His-tagged PRC2 complex, sequence (Q6ZN18 whole entry partner): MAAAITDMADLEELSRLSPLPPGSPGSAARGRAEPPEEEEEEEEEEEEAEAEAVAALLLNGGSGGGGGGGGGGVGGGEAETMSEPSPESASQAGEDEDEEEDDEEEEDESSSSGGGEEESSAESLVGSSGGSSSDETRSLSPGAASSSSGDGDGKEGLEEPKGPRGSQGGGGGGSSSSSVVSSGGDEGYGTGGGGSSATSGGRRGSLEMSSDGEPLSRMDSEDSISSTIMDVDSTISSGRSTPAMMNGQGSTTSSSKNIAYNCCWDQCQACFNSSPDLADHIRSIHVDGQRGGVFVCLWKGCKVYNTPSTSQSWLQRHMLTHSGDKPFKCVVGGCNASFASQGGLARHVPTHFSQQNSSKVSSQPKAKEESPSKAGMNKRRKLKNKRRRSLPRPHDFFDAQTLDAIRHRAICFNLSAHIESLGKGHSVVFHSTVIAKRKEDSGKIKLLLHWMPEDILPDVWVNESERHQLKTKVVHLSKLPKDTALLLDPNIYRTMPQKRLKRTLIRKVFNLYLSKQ
purified human, His-tagged PRC2 complex, sequence (Q09028 whole entry partner): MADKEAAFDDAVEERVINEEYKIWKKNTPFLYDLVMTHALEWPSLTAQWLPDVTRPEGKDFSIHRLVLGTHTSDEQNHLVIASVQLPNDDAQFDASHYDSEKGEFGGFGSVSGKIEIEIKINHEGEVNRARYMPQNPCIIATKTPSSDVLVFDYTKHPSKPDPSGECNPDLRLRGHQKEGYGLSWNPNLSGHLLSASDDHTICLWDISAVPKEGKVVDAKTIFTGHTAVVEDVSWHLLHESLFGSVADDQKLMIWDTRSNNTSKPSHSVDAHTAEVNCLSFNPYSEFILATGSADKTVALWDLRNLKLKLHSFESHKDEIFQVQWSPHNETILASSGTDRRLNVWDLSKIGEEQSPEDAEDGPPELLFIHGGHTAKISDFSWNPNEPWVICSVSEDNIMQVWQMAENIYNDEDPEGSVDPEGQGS

The assay has as its target purified human, His-tagged PRC2 complex (Homo sapiens (Human), UniProt O75530). Description: Hot Spot HMT assay, inhibition of PRC2 enzymatic activity. The note with it: 10 nM PRC2 complex, 1 μM 3H-SAM, core histone H3, 10-point dose-response. In kind it is biochemical. The source says:
The assay uses purified human, His-tagged PRC2 complex, including N-terminal His-tagged EZH2 enzyme, N-terminal Flag-tagged embryonic ectoderm development protein (EED), N-terminal His-tagged suppressor of zeste 12 (SUZ12), N-terminal His-tagged AEBP2, and N-terminal His-tagged RbAp48. In this assay, the transfer of the tritiated methyl group from radiolabeled S-adenosyl methionine (SAM) to purified core histone protein by EZH2 is quantitated after filtration to determine the activity of the core PRC2 complex in the presence and absence of compound.
The initial starting concentration for the serial dilutions of each compound was 1.0 μM. […] SAH (S-(5-adenosyl)-L-homocysteine) was used as a positive control for assay validation.
An aliquot of each serial dilution of test compound was added to deep 384 well plate using Acoustic Technology instrument (Echo 550, LabCyte) containing reaction buffer (50 mM Tris-HCl (pH 8.)), 0.01% Brij35, 1 mM EDTA, 1 mM DTT, 1 mM PMSF and 1% DMSO), 10 nM purified PRC2 complex and 0.05 mg/ml core histone H3 in a 5 μl volume. The reaction was mixed gently and then pre-incubated for 20 min at 30° C. The enzymatic reaction was initiated by adding 1 μM S-Adenosyl-L-[methyl-^3H]methionine and incubated for 1 hr at 30° C. After 1 hr, the reaction product was detected using a filter binding method and the amount of tritiated H3 core histone was quantitated using a scintillation counter. […] Key: A=<100 nM; B=>100 nM-<500 nM; and C=>500 nM.
What is called IC50 is the point on the concentration scale where inhibition reaches its midpoint. Low readings indicate greater potency, high ones weaker potency. Molecule `Cc1ncc(-c2cnc(NCc3c(F)ccc4c3CCO4)n3cc(C#N)nc23)cc1N` [Example 129, 8-(5-amino-6-methylpyridin-3-yl)-5-(((5-fluoro-2,3-dihydrobenzofuran-4-yl)methyl)amino)imidazo[1,2-c]pyrimidine-2-carbonitrile] came in with a half-maximal inhibitory concentration (IC50) below 100 nM.
With `CC(C)n1cc(-c2cnc(NCc3c(F)ccc4c3CCO4)n3cc(C#N)nc23)cn1` [Example 99, 5-(((5-fluoro-2,3-dihydrobenzofuran-4-yl)methyl)amino)-8-(1-isopropyl-1H-pyrazol-4-yl)imidazo[1,2-c]pyrimidine-2-carbonitrile] the figure was below 100 nM.
To `Cc1c(-c2cnc(NCc3c(F)ccc4c3CCO4)n3cc(C#N)nc23)cnn1C(C)C` [Example 26, 5-(((5-fluoro-2,3-dihydrobenzofuran-4-yl)methyl)amino)-8-(1-isopropyl-5-methyl-1H-pyrazol-4-yl)imidazo[1,2-c]pyrimidine-2-carbonitrile] belongs 100 to 500 nM; to `Cc1cc(C2CCCN2)ccc1-c1cnc(NCc2c(F)ccc3c2CCO3)n2cc(C#N)nc12` (single isomer, unassigned) [Example 213, 5-(((5-fluoro-2,3-dihydrobenzofuran-4-yl)methyl)amino)-8-(2-methyl-4-(pyrrolidin-2-yl)phenyl)imidazo[1,2-c]pyrimidine-2-carbonitrile], below 100 nM; to `CS(=O)(=O)c1ccc(-c2cnc(NCc3c(F)ccc4c3CCO4)n3cc(C#N)nc23)cc1` [Example 73, 5-(((5-fluoro-2,3-dihydrobenzofuran-4-yl)methyl)amino)-8-(4-(methylsulfonyl)phenyl)imidazo[1,2-c]pyrimidine-2-carbonitrile], below 100 nM.
On to `CN(C)C(=O)c1cc(Cl)c(-c2cnc(NCc3c(F)ccc4c3CCO4)n3cc(C#N)nc23)cc1F` [Example 35, 5-chloro-4-(2-cyano-5-(((5-fluoro-2,3-dihydrobenzofuran-4-yl)methyl)amino)imidazo[1,2-c]pyrimidin-8-yl)-2-fluoro-N,N-dimethylbenzamide], for which the IC50 was below 100 nM.
With `Cc1n[nH]c(C)c1-c1cnc(NCc2c(F)ccc3c2CCO3)n2cc(C#N)nc12` [Example 104, 8-(3,5-dimethyl-1H-pyrazol-4-yl)-5-(((5-fluoro-2,3-dihydrobenzofuran-4-yl)methyl)amino)imidazo[1,2-c]pyrimidine-2-carbonitrile], the 50% inhibitory concentration (IC50) was above 500 nM.
With `CN1CCc2cc(-c3cnc(NCc4c(F)ccc5c4CCO5)n4cc(C#N)nc34)ccc2C1=O` [Example 168, 5-(((5-fluoro-2,3-dihydrobenzofuran-4-yl)methyl)amino)-8-(2-methyl-1-oxo-1,2,3,4-tetrahydroisoquinolin-6-yl)imidazo[1,2-c]pyrimidine-2-carbonitrile] the figure was below 100 nM; with `N#Cc1cn2c(NCc3c(F)ccc4c3CCO4)ncc(-c3ccc(C(F)(F)F)nc3)c2n1` [Example 126, 5-(((5-fluoro-2,3-dihydrobenzofuran-4-yl)methyl)amino)-8-(6-(trifluoromethyl)pyridin-3-yl)imidazo[1,2-c]pyrimidine-2-carbonitrile], 100 to 500 nM.
With `N#Cc1cn2c(NCc3c(F)ccc4c3CCO4)ncc(-c3cccnc3)c2n1` [Example 100, 5-(((5-fluoro-2,3-dihydrobenzofuran-4-yl)methyl)amino)-8-(pyridin-3-yl)imidazo[1,2-c]pyrimidine-2-carbonitrile] the figure was below 100 nM; with `N#Cc1cn2c(NCc3c(F)ccc4c3CCO4)ncc(-c3ccc([C@H]4CCCN4)cc3)c2n1` [Example 220, (R)-5-(((5-fluoro-2,3-dihydrobenzofuran-4-yl)methyl)amino)-8-(4-(pyrrolidin-2-yl)phenyl)imidazo[1,2-c]pyrimidine-2-carbonitrile], 100 to 500 nM; with `N#Cc1cn2c(NCc3c(F)ccc4c3CCO4)ncc(C3CC3)c2n1` [Example 77, 8-cyclopropyl-5-(((5-fluoro-2,3-dihydrobenzofuran-4-yl)methyl)amino)imidazo[1,2-c]pyrimidine-2-carbonitrile], 100 to 500 nM.
With `CN(C)Cc1cc(-c2cnc(NCc3c(F)ccc4c3CCO4)n3cc(C#N)nc23)n(C)n1` [Example 210, 8-(3-((dimethylamino)methyl)-1-methyl-1H-pyrazol-5-yl)-5-(((5-fluoro-2,3-dihydrobenzofuran-4-yl)methyl)amino)imidazo[1,2-c]pyrimidine-2-carbonitrile] the figure was below 100 nM; with `Cc1cc(C(=O)N(C)C)ncc1-c1cnc(NCc2c(F)ccc3c2CCO3)n2cc(C#N)nc12` [Example 76, 5-(2-cyano-5-(((5-fluoro-2,3-dihydrobenzofuran-4-yl)methyl)amino)imidazo[1,2-c]pyrimidin-8-yl)-N,N,4-trimethylpicolinamide], below 100 nM.
Consider `CN1CCN(C(=O)c2ccc(-c3cnc(NCc4c(F)ccc5c4CCO5)n4cc(C#N)nc34)cc2)CC1` [Example 115, 5-(((5-fluoro-2,3-dihydrobenzofuran-4-yl)methyl)amino)-8-(4-(4-methylpiperazine-1-carbonyl)phenyl)imidazo[1,2-c]pyrimidine-2-carbonitrile], for which the IC50 was below 100 nM.
With `Cc1nc(OC(C)C)ncc1-c1cnc(NCc2c(F)ccc3c2CCO3)n2cc(C#N)nc12` [Example 89, 5-(((5-fluoro-2,3-dihydrobenzofuran-4-yl)methyl)amino)-8-(2-isopropoxy-4-methylpyrimidin-5-yl)imidazo[1,2-c]pyrimidine-2-carbonitrile], the half-inhibitory concentration (IC50) is below 100 nM.
With `Cc1ccc(C#N)cc1-c1cnc(NCc2c(F)ccc3c2CCO3)n2cc(C#N)nc12` [Example 177, 8-(5-cyano-2-methylphenyl)-5-(((5-fluoro-2,3-dihydrobenzofuran-4-yl)methyl)amino)imidazo[1,2-c]pyrimidine-2-carbonitrile] the figure was 100 to 500 nM; with `CN(C)Cc1ccc(-c2cnc(NCc3c(F)ccc4c3CCO4)n3cc(C#N)nc23)c(F)c1F` [Example 37, 8-(4-((dimethylamino)methyl)-2,3-difluorophenyl)-5-(((5-fluoro-2,3-dihydrobenzofuran-4-yl)methyl)amino)imidazo[1,2-c]pyrimidine-2-carbonitrile], below 100 nM; with `Cc1c(-c2cnc(NCc3c(F)ccc4c3CCO4)n3cc(C(=O)O)nc23)cnn1C(C)C` [Example 8, 5-(((5-fluoro-2,3-dihydrobenzofuran-4-yl)methyl)amino)-8-(1-isopropyl-5-methyl-1H-pyrazol-4-yl)imidazo[1,2-c]pyrimidine-2-carboxylic acid], below 100 nM.
To `Cc1c(C#N)cccc1-c1cnc(NCc2c(F)ccc3c2CCO3)n2cc(C#N)nc12` [Example 176, 8-(3-cyano-2-methylphenyl)-5-(((5-fluoro-2,3-dihydrobenzofuran-4-yl)methyl)amino)imidazo[1,2-c]pyrimidine-2-carbonitrile] belongs below 100 nM; to `CCOc1ncccc1-c1cnc(NCc2c(F)ccc3c2CCO3)n2cc(C#N)nc12` [Example 124, 8-(2-ethoxypyridin-3-yl)-5-(((5-fluoro-2,3-dihydrobenzofuran-4-yl)methyl)amino)imidazo[1,2-c]pyrimidine-2-carbonitrile], below 100 nM; to `Cc1nc(CN(C)C)ccc1-c1cnc(NCc2c(F)ccc3c2CCO3)n2cc(C#N)nc12` [Example 152, 8-(6-((dimethylamino)methyl)-2-methylpyridin-3-yl)-5-(((5-fluoro-2,3-dihydrobenzofuran-4-yl)methyl)amino)imidazo[1,2-c]pyrimidine-2-carbonitrile], 100 to 500 nM.
For the molecule `CNC(=O)c1cc(-c2cnc(NCc3c(F)ccc4c3CCO4)n3cc(C#N)nc23)n(C)n1` [Example 208, 5-(2-cyano-5-(((5-fluoro-2,3-dihydrobenzofuran-4-yl)methyl)amino)imidazo[1,2-c]pyrimidin-8-yl)-N,1-dimethyl-1H-pyrazole-3-carboxamide], the concentration for half-maximal inhibition (IC50) was below 100 nM.
Consider `Cc1nc(N2CCOCC2)ccc1-c1cnc(NCc2c(F)ccc3c2CCO3)n2cc(C#N)nc12` [Example 56, 5-(((5-fluoro-2,3-dihydrobenzofuran-4-yl)methyl)amino)-8-(2-methyl-6-morpholinopyridin-3-yl)imidazo[1,2-c]pyrimidine-2-carbonitrile], for which the half-inhibitory concentration (IC50) is below 100 nM.
On to `Cc1ncc(-c2cnc(NCc3c(F)ccc4c3CCO4)n3cc(C#N)nc23)cn1` [Example 69, 5-(((5-fluoro-2,3-dihydrobenzofuran-4-yl)methyl)amino)-8-(2-methylpyrimidin-5-yl)imidazo[1,2-c]pyrimidine-2-carbonitrile], for which the IC50 is below 100 nM.
Molecule `N#Cc1cn2c(NCc3c(F)ccc4c3CCO4)ncc(-c3ccc4c(c3)CCNC4)c2n1` [Example 203, 5-(((5-fluoro-2,3-dihydrobenzofuran-4-yl)methyl)amino)-8-(1,2,3,4-tetrahydroisoquinolin-6-yl)imidazo[1,2-c]pyrimidine-2-carbonitrile] came in with an IC50 of 100 to 500 nM.
Consider `COc1cncc(-c2cnc(NCc3c(F)ccc4c3CCO4)n3cc(C#N)nc23)c1` [Example 93, 5-(((5-fluoro-2,3-dihydrobenzofuran-4-yl)methyl)amino)-8-(5-methoxypyridin-3-yl)imidazo[1,2-c]pyrimidine-2-carbonitrile], for which the IC50 is 100 to 500 nM.
